From US10266527B2, “T-box riboswitch-binding anti-bacterial compounds” (THE RESEARCH FOUNDATION FOR THE STATE UNIVERSITY OF NEW YORK, priority 2013, dated 2019)

Tests used:
Assay type in all cases: cell-based
E. faecalis ATCC 29212 [1] = experiment: Broth microdilution MIC; conditions: N/O = not observed
P. aeruginosa ATCC 27853 [2] = experiment: Broth microdilution MIC; conditions: N/O = not observed
E. coli ATCC 25922 [3] = experiment: Broth microdilution MIC (Gram negative specificity control); conditions: E. coli ATCC 25922; N/O = not observed
B. subtilis BGSC 1A1 [4] = experiment: Broth microdilution MIC; conditions: B. subtilis BGSC 1A1; 20 h at 37° C.
Method: (§1) Broth microdilution assays^77, 78 were performed with B. subtilis, and S. aureus to determine the lowest compound concentration inhibiting visible growth, i.e., minimum inhibitory concentration (MIC) of the 4 original compounds. […] The insolubility of the fourth compound may account for its lack of antibacterial activity. […] The MICs of each compound are moderate.
(§2) Strains were grown on trypticase soy agar (TSA) with 5% sheep blood at 37° C. for 24 hours. Five isolated colonies were used to inoculate 5 mL cation-adjusted Mueller-Hinton broth (CAMHB) contained in a 50 mL centrifuge tube. The resulting culture was incubated shaking at 200 rpm for 3 hours at 37° C. and then diluted in CAMHB until its turbidity matched that of a 0.5 McFarland standard (OD625 0.08-0.10). After the culture had been standardized against a 0.5 McFarland standard, it was diluted 1:10 in CAMHB and then 5 μL of this dilution was added to the appropriate wells of a 96-well, flat-bottomed tissue culture plate in which each row contained a twofold dilution series of a particular compound ranging in concentration from 0.25 μg/mL to 512 μg/mL. Each plate also included a sterility control well containing CAMHB to which standardized inoculum was not added and a growth control well containing CAMHB to which 5 μL standardized inoculum was added. […] With the exception of the sterility control well, all wells were inoculated within 15 minutes of inoculum preparation to ensure that the starting concentration of bacteria in each well was approximately 5×10^5 CFU/m L. A Tecan Sunrise microplate absorbance reader was used to measure the OD620 of each well before and after 20 h incubation at 37° C. MIC values were recorded as the lowest compound concentration at which no visible growth was observed after this incubation period.

S. aureus ATCC 29213 [5] = experiment: MBC determination; conditions: S. aureus ATCC 29213; N/O = not observed
Description: (§3) The identity and purity of both PKZ 6 and 18 was confirmed by mass spectroscopy. Forty commercially available compounds chosen on the basis of initial in silico selections and similarity to our two hits were screened by disc diffusion assay (DDA) to determine their relative antibacterial activity with S. aureus. […] These 14 compounds were further evaluated by minimum inhibitory concentration assays (MIC)^41,42, and minimum bactericidal assays (MBC)^41 to confirm antibacterial activity, determine the concentration at which S. aureus growth is inhibited in liquid culture (MIC) and if they are acting as bacteriostatic or bactericidal agents (MBC). […] Representative embodiments are shown below.
(§4) Following 24 h incubation of these subcultures at 37° C., MBC values were recorded as the lowest compound concentration at which no viable colonies were observed.

S. aureus ATCC 29213 [6] = experiment: Broth microdilution MIC; conditions: S. aureus ATCC 29213; N/O = not observed
Description: as §3, §1, §2

P. aeruginosa ATCC 27853 [7] = experiment: MBC determination
Method: as §4

B. cereus ATCC 7064 [8] = experiment: MBC determination; conditions: N/O = not observed
Method: as §4

E. faecalis ATCC 29212 [9] = experiment: MBC determination; conditions: N/O = not observed
Method: as §4

B. subtilis BGSC 1A1 [10] = experiment: MBC determination; conditions: IND = indeterminate
Method: as §4

E. coli ATCC 25922 [11] = experiment: MBC determination; conditions: E. coli ATCC 25922
Method: as §4

B. cereus ATCC 7064 [12] = experiment: Broth microdilution MIC; conditions: B. cereus ATCC 7064
S. pneumoniae ATCC 49619 = experiment: Broth microdilution MIC; conditions: S. pneumoniae ATCC 49619

## Gentamicin [reference compound]
E. faecalis ATCC 29212 [1]
  MIC: 8 µg/mL
P. aeruginosa ATCC 27853 [2]
  MIC: 1 µg/mL
E. coli ATCC 25922 [3]
  MIC: 1 µg/mL
B. subtilis BGSC 1A1 [4]
  MIC: 0.125 µg/mL
S. aureus ATCC 29213 [5]
  MBC: 8 µg/mL
S. aureus ATCC 29213 [6]
  MIC: 0.5 µg/mL
P. aeruginosa ATCC 27853 [7]
  MBC: 4 µg/mL
B. cereus ATCC 7064 [8]
  MBC: 2 µg/mL
E. faecalis ATCC 29212 [9]
  MBC: 32 µg/mL
B. subtilis BGSC 1A1 [10]
  MBC: 0.25 µg/mL
E. coli ATCC 25922 [11]
  MBC: 1 µg/mL
B. cereus ATCC 7064 [12]
  MIC: 1 µg/mL
S. pneumoniae ATCC 49619
  MIC: 4 (N/D) μg/mL
